Reference: article PMC10647616, “Side-Chain Modified [^99mTc]Tc-DT1 Mimics: A Comparative Study in NTS1R-Positive Models” (International Journal of Molecular Sciences, 2023)
Residues, ends and D or L forms follow the SMILES beside them. *: point of attachment. N4 = 6-(carboxy)-1,4,8,11-tetraazaundecane chelator, NCCNCC(CNCCN)C(=O)*; Butanoyl(4-(4-MePh)) = Cc1ccc(CCCC(=O)*)cc1; X1 = NCCNCC(CNCCN)C(=O)*

What was measured:
human NTS1R = target: T1, human NTS1R (Homo sapiens, UniProt P30989); experiment: Competition binding against [125I]I-Tyr3-NT in WiDr cell membrane homogenates; details: WiDr cell membranes, 1 h at 22 °C, mean ± sd; read-out: IC50, [125I]I-Tyr3-NT displacement from NTS1R binding sites
T1 construct: freshly prepared membrane homogenates of human colon adenocarcinoma WiDr cells; endogenous in cells; host or cells: WiDr human colon adenocarcinoma cells (membrane homogenates)
Method: Aliquots of the cell membrane homogenates from WiDr cells (collected and stored at −80 °C in Tris/EDTA:10 mM of Tris, 0.1 mM of EDTA, pH 7.4) were thawed, combined and diluted in cold BB. In RIA tubes in triplicate, the test peptide (30 µL) of each concentration point, radioligand (70 µL) and membrane homogenate (200 µL) were consecutively added and thoroughly vortexed. Samples were placed for 1 h in the Incubator-Orbital Shaker (MPM Instr. Srl; Bernareggio, Italy) at 22 °C under constant steering. […] The samples were aspirated, and individual filters corresponding to each tube were collected in separate plastic tubes and measured for radioactivity on the γ-counter. Inhibition curves were plotted and the half maximal inhibitory concentration (IC50) values were calculated by applying a nonlinear one-site model (GraphPad Prism—6 Software, San Diego, CA, USA). The results for each compound are given as the average IC50 values ± sd of at least three independent repetitions of the experiment performed in triplicate.

AsPC-1 cells = experiment: Time-dependent radioligand internalization in AsPC-1 cells; type: cell-based, human; details: 37 °C, at 1 h, non-specific (1 μM NT) subtracted
Method: The time-dependent internalization of [^99mTc]Tc-DT10/11/12 was directly compared with [^99mTc]Tc-DT1 via incubation in AsPC-1 cells at 37 °C for 15 min, 30 min, 1 h and 2 h. The cells were seeded in 6-well plates (1 × 10^6 per well) and left in the incubator overnight. The next day, the cells were washed twice with ice-cold internalization medium (IM, RPMI supplemented with 1% FBS). The plates were placed on the bench and the following solutions were successively added per well: warm IM (1200 µL at 37 °C), radioligand (250 fmol in 150 µL of IM) and either IM (150 µL; 3 upper wells: total series) or NT (10^−5 M in IM, 3 bottom wells: non-specific series). The plates were placed in the incubator at 37 °C and, at the predetermined time points, were retrieved and placed on ice. […] The three fractions collected per well in separate RIA tubes (supernatant, MB and internalized) were measured for their radioactivity content on the γ-counter. The radioactivity of each fraction was then assessed as a percentage of the initial activity added per well. By subtracting the non-specific fractions from the respective total fractions, the specific MB and internalization fractions could be determined. […] The results were expressed as mean ± sd.

albumin = albumin (Bos taurus, UniProt P02769); type: in vitro ADME, bovine
Method: The binding of the new [^99mTc]Tc-DT10/11/12 and the [^99mTc]Tc-DT1 reference to albumin was compared via the incubation of radioligands in BSA-treated 6-well plates. Accordingly, HEPES-buffered saline (150 mM of NaCl, 20 mM of HEPES, pH 7.4) supplemented with 0.5% w/v BSA (1200 µL of HBS-BSA) was added to each well, followed by the radioligand (250 fmol peptide, in 150 µL of HBS) and either HBS-BSA (150 µL, total binding) or Ibuprofen (22.2 mg/mL in HBS, 150 µL), to reach a total final volume of 1.5 mL. The plates were incubated in triplicate at 37 °C for 30 min in the incubator. Next, the supernatants were discarded and the wells were treated with 1 M NaOH (2 × 600 µL). The lysates were combined and collected in RIA tubes for radioactivity measurement on the γ-counter. Binding to albumin was calculated as a percentage of the measured activity vs. the activity originally added per well. The experiments were performed at least three times in triplicate and the results represent the average binding to albumin ± sd.

T1 sequence (P30989 whole entry): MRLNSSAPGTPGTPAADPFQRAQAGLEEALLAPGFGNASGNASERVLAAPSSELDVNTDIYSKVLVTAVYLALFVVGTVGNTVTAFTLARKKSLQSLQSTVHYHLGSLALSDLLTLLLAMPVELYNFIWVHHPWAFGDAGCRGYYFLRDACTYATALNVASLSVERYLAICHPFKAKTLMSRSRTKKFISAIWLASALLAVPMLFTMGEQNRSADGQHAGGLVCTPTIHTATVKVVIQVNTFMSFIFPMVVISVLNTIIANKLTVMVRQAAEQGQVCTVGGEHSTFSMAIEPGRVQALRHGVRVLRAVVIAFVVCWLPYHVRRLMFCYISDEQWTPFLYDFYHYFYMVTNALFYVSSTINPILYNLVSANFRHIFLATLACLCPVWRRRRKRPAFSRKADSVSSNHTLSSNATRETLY
Sequence of albumin (P02769 25-607): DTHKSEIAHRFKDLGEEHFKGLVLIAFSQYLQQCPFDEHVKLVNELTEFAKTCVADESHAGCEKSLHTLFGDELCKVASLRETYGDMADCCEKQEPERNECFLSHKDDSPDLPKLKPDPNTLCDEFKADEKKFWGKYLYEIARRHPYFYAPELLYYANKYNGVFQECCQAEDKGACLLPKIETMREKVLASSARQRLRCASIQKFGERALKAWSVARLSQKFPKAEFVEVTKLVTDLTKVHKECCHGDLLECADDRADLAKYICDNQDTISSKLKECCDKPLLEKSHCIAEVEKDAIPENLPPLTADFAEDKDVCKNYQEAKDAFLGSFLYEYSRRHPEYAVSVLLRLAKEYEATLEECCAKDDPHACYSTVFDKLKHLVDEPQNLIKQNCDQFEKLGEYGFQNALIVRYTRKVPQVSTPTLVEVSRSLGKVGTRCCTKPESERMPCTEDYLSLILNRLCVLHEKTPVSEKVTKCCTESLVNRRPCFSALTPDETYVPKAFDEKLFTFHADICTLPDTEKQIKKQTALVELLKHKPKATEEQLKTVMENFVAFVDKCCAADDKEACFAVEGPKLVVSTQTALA

Compound	IC50 (human NTS1R) [pM]	specific internalization (AsPC-1 cells) [%]	binding to albumin (albumin) [%]
CC[C@H](C)[C@H](NC(=O)[C@H](Cc1ccc(O)cc1)NC(=O)[C@@H]1CCCN1C(=O)[C@H](CCCNC(=N)N)NC(=O)[C@H](CCCNC(=N)N)NC(=O)[C@H](CCCCNC(=O)CCCc1ccc(C)cc1)NC(=O)C(CNCCN)CNCCN)C(=O)N[C@@H](CC(C)C)C(=O)O [DT10] (X1-K(Butanoyl(4-(4-MePh)))RRPYIL-OH)	60 ± 30	–	–
[^99mTc]Tc-DT1: Tc-99m labeled DT1 (N4-Gly-Arg-Arg-Pro-Tyr-Ile-Leu-OH), unmodified reference radioligand (N4-GRRPYIL-OH; also: 99mTc complexed by N4 chelator)	–	15.1 ± 2.3	< 1.0
CC[C@H](C)[C@H](NC(=O)[C@H](Cc1ccc(O)cc1)NC(=O)[C@@H]1CCCN1C(=O)[C@H](CCCNC(=N)N)NC(=O)[C@H](CCCNC(=N)N)NC(=O)CNC(=O)C(CNCCN)CNCCN)C(=O)N[C@@H](CC(C)C)C(=O)O [DT1, N4-Gly-Arg-Arg-Pro-Tyr-Ile-Leu-OH] (X1-GRRPYIL-OH)	140 ± 10	–	–
